Reference: PMC8830019, “A sensitive, accurate, and high-throughput gluco-oligosaccharide oxidase-based HRP colorimetric method for assaying lytic polysaccharide monooxygenase activity” (Biotechnology for Biofuels and Bioproducts, 2022)

Target: T1, SsGOOX (recombinant gluco-oligosaccharide oxidase) (Sarocladium strictum, UniProt Q6PW77)
T1 construct: gene gluO; T. reesei cbh1 signal peptide at N-terminus, C-terminal 6xHis; codon-optimised synthetic gene, secreted by Trichoderma reesei QM9414
T1 sequence (Q6PW77 26-499): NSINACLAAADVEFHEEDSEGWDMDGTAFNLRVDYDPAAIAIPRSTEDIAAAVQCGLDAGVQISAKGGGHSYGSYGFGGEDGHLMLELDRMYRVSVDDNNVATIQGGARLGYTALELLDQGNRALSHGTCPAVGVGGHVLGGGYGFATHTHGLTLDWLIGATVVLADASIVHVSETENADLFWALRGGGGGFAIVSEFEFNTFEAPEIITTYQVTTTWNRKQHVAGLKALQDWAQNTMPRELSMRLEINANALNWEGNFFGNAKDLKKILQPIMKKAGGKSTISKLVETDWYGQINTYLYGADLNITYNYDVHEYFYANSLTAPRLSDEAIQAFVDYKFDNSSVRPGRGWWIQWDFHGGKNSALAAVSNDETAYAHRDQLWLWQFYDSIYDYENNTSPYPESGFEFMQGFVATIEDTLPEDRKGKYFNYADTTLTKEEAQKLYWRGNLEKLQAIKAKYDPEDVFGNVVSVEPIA
Assay: HRP-coupled colorimetric H2O2 assay (4-AAP / DCHBS, A515), modified Hill's model with substrate inhibition
Type: biochemical
Settings: pH 7.0 phosphate, room temperature (about 26 C), 10 nM enzyme, 0.02-5 mM cellobiose; Hill-type fit with substrate inhibition; substrate inhibition constant; second site

**Q.** For `OC[C@H]1O[C@@H](O[C@H]2[C@H](O)[C@@H](O)C(O)O[C@@H]2CO)[C@H](O)[C@@H](O)[C@@H]1O` (stereo partly shown) [cellobiose], which Ki is on record?
**A.** 995 µM
